“Also recorded” adds a separate entry of the source.

The text below walks through data of patent US9642789B2, “Methods for generating new hair follicles, treating baldness, and hair removal” (THE TRUSTEES OF THE UNIVERSITY OF PENNSYLVANIA, priority 2005, dated 2017).

This experiment deals with T1, EGF receptor (Mus musculus, UniProt Q01279).
T1 construct: from tissue; host or cells: healing skin wound of live mice
As to the kind of experiment: EDIHN after single injection of EGF receptor inhibitor into wound. The class given is in vivo, mice. The conditions noted are these: 150 μM in 10 μL, single injection 11 days after 1 cm^2 incisional wounding; K17 and AP staining. Here is the method:
To determine the effect of administration of EGF receptor inhibitors on DIHN, the inhibitor AG1478 (150 μM in 10 μL volume) was administered as a single injection 11 days after incisional wounding (1 cm^2) to the middle of the wound near the skin surface. […] Left panel: epidermis stained for K17, with three large hair follicles next to each other. Right panel: dermis stained for AP with large coalescing dermal papilla areas.

T1 sequence (Q01279 25-1210): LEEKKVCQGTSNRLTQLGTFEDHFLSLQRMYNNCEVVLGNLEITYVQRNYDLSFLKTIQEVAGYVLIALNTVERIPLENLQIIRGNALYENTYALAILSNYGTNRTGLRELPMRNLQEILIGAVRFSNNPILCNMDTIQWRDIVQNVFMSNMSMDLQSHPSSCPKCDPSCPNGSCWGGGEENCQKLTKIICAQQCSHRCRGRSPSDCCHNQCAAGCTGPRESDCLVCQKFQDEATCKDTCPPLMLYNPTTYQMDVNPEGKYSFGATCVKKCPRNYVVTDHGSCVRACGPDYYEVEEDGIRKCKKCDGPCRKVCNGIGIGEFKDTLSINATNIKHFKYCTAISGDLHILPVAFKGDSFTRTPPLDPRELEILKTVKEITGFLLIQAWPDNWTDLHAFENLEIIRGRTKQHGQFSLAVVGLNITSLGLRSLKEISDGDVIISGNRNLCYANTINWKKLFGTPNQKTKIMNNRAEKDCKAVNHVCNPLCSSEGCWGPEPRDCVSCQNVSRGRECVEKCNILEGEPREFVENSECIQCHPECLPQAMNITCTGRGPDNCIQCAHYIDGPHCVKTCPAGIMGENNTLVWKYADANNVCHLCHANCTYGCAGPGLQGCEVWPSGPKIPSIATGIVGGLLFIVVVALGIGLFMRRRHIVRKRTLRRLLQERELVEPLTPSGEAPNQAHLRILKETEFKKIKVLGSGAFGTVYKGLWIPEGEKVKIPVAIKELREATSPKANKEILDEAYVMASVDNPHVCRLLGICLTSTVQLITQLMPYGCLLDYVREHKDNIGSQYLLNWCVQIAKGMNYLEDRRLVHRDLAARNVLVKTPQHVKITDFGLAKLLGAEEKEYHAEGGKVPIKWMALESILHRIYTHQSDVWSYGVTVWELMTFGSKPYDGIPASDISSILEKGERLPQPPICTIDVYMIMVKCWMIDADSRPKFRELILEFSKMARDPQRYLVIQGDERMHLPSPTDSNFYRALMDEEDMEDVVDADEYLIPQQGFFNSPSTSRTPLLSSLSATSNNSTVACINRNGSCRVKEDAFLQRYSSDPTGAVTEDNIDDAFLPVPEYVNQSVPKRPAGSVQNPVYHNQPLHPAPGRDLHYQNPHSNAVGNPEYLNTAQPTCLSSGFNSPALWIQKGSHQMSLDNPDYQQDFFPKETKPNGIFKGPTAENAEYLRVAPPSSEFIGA

Consider `COc1cc2ncnc(Nc3cccc(Cl)c3)c2cc1OC` [AG1478], for which the “number and size of hair follicles generated compared with control mice wounded only” value is “more and larger hair follicles; also recorded: more and larger HF”.
